Test results published in PubChem BioAssay (NCI).
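48-hour exposure; five concentrations; linearly interpolated endpoints. GI50 = concentration required for 50% inhibition of growth. At the TGI there is no net growth.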

What was measured:
Test in all cases: NCI tumour cell line growth inhibition, 48 h
A498 renal = system: A498 renal
SN12C renal = system: SN12C renal
LOX IMVI melanoma = system: LOX IMVI melanoma
M14 melanoma = system: M14 melanoma
NCI-H23 lung = system: NCI-H23 lung
IGROV1 ovarian = system: IGROV1 ovarian
HCT-116 colon = system: HCT-116 colon
786-0 renal = system: 786-0 renal
MOLT-4 leukemia = system: MOLT-4 leukemia
MALME-3M melanoma = system: MALME-3M melanoma
UO-31 renal = system: UO-31 renal
OVCAR-4 ovarian = system: OVCAR-4 ovarian
NCI/ADR-RES ovarian = system: NCI/ADR-RES ovarian
A549 NSCLC = system: A549 NSCLC
UACC-62 melanoma = system: UACC-62 melanoma
NCI-H460 lung = system: NCI-H460 lung
MCF7 breast = system: MCF7 breast
EKVX NSCLC = system: EKVX NSCLC
HOP-62 NSCLC = system: HOP-62 NSCLC
HT29 colon = system: HT29 colon
SW-620 colon = system: SW-620 colon
KM12 colon = system: KM12 colon
HOP-92 NSCLC = system: HOP-92 NSCLC
NCI-H522 lung = system: NCI-H522 lung
SF-268 CNS = system: SF-268 CNS
HS 578T breast = system: HS 578T breast
NCI-H226 lung = system: NCI-H226 lung
CCRF-CEM leukemia = system: CCRF-CEM leukemia
ACHN renal = system: ACHN renal
HCT-15 colon = system: HCT-15 colon
SK-MEL-2 melanoma = system: SK-MEL-2 melanoma
SR leukemia = system: SR leukemia
PC-3 prostate = system: PC-3 prostate
SK-MEL-28 melanoma = system: SK-MEL-28 melanoma
MDA-MB-231 breast = system: MDA-MB-231 breast
UACC-257 melanoma = system: UACC-257 melanoma
HCC-2998 colon = system: HCC-2998 colon
SNB-75 CNS = system: SNB-75 CNS
BT-549 breast = system: BT-549 breast
SNB-19 CNS = system: SNB-19 CNS
TK-10 renal = system: TK-10 renal
T-47D breast = system: T-47D breast
OVCAR-8 ovarian = system: OVCAR-8 ovarian
HL-60(TB) leukemia = system: HL-60(TB) leukemia
DU-145 prostate = system: DU-145 prostate
SK-MEL-5 melanoma = system: SK-MEL-5 melanoma
OVCAR-5 ovarian = system: OVCAR-5 ovarian
U251 CNS = system: U251 CNS
SK-OV-3 ovarian = system: SK-OV-3 ovarian

`CCOC(=O)c1cc(C(=O)c2ccc(OC)c(OC)c2)n2c1ccc1ccc3cccnc3c12` showed a GI50 (A498 renal) of 2.82 µM, a TGI (A498 renal) of over 100 µM and a GI50 (SN12C renal) of 5.46 µM. It also gave a TGI (SN12C renal) of over 100 µM, a GI50 (LOX IMVI melanoma) of 2.6 µM and a TGI (LOX IMVI melanoma) of over 100 µM. For the same molecule, the GI50 (M14 melanoma) was 0.648 µM, the TGI (M14 melanoma) was over 100 µM and the GI50 (NCI-H23 lung) was 4 µM. For the same molecule, the TGI (NCI-H23 lung) was over 100 µM, the GI50 (IGROV1 ovarian) was 2.33 µM and the TGI (IGROV1 ovarian) was over 100 µM. The GI50 (HCT-116 colon) was 0.619 µM, the TGI (HCT-116 colon) was over 100 µM and the GI50 (786-0 renal) was 2.34 µM. The TGI (786-0 renal) was over 100 µM, the GI50 (MOLT-4 leukemia) was 4.53 µM and the TGI (MOLT-4 leukemia) was over 100 µM. For the same molecule, the GI50 (MALME-3M melanoma) was 1.24 µM, the TGI (MALME-3M melanoma) was over 100 µM and the GI50 (UO-31 renal) was 0.891 µM. It also gave a TGI (UO-31 renal) of over 100 µM, a GI50 (OVCAR-4 ovarian) of 5.17 µM and a TGI (OVCAR-4 ovarian) of over 100 µM. For the same molecule, the GI50 (NCI/ADR-RES ovarian) was 0.948 µM, the TGI (NCI/ADR-RES ovarian) was over 100 µM and the GI50 (A549 NSCLC) was 5.46 µM. It also gave a TGI (A549 NSCLC) of over 100 µM, a GI50 (UACC-62 melanoma) of 0.918 µM and a TGI (UACC-62 melanoma) of over 100 µM. It also gave a GI50 (NCI-H460 lung) of 1.58 µM, a TGI (NCI-H460 lung) of over 100 µM and a GI50 (MCF7 breast) of 2.25 µM. For the same molecule, the TGI (MCF7 breast) was over 100 µM, the GI50 (EKVX NSCLC) was 4.14 µM and the TGI (EKVX NSCLC) was over 100 µM. The GI50 (HOP-62 NSCLC) was 3.78 µM, the TGI (HOP-62 NSCLC) was 81.6 µM and the GI50 (HT29 colon) was 1.42 µM. For the same molecule, the TGI (HT29 colon) was 23 µM, the GI50 (SW-620 colon) was 0.93 µM and the TGI (SW-620 colon) was over 100 µM. The GI50 (KM12 colon) was 1.3 µM, the TGI (KM12 colon) was 80.7 µM and the GI50 (HOP-92 NSCLC) was 6.78 µM. The TGI (HOP-92 NSCLC) was over 100 µM, the GI50 (NCI-H522 lung) was 0.611 µM and the TGI (NCI-H522 lung) was over 100 µM. For the same molecule, the GI50 (SF-268 CNS) was 4.62 µM, the TGI (SF-268 CNS) was over 100 µM and the GI50 (HS 578T breast) was 3.04 µM. The TGI (HS 578T breast) was over 100 µM, the GI50 (NCI-H226 lung) was 6.86 µM and the TGI (NCI-H226 lung) was over 100 µM. For the same molecule, the GI50 (CCRF-CEM leukemia) was 3.13 µM, the TGI (CCRF-CEM leukemia) was over 100 µM and the GI50 (ACHN renal) was 2.4 µM. For the same molecule, the TGI (ACHN renal) was over 100 µM, the GI50 (HCT-15 colon) was 1.25 µM and the TGI (HCT-15 colon) was over 100 µM. For the same molecule, the GI50 (SK-MEL-2 melanoma) was 2.67 µM, the TGI (SK-MEL-2 melanoma) was 66.6 µM and the GI50 (SR leukemia) was 0.807 µM. The TGI (SR leukemia) was over 100 µM, the GI50 (PC-3 prostate) was 0.96 µM and the TGI (PC-3 prostate) was over 100 µM. The GI50 (SK-MEL-28 melanoma) was 3.7 µM, the TGI (SK-MEL-28 melanoma) was over 100 µM and the GI50 (MDA-MB-231 breast) was 2.66 µM. It also gave a TGI (MDA-MB-231 breast) of over 100 µM, a GI50 (UACC-257 melanoma) of 25 µM and a TGI (UACC-257 melanoma) of over 100 µM. The GI50 (HCC-2998 colon) was 4.08 µM, the TGI (HCC-2998 colon) was over 100 µM and the GI50 (SNB-75 CNS) was 2.04 µM. The TGI (SNB-75 CNS) was over 100 µM, the GI50 (BT-549 breast) was 1.94 µM and the TGI (BT-549 breast) was over 100 µM. For the same molecule, the GI50 (SNB-19 CNS) was 5.07 µM, the TGI (SNB-19 CNS) was over 100 µM and the GI50 (TK-10 renal) was 7.2 µM. It also gave a TGI (TK-10 renal) of over 100 µM, a GI50 (T-47D breast) of 2.37 µM and a TGI (T-47D breast) of over 100 µM. It also gave a GI50 (OVCAR-8 ovarian) of 3.73 µM, a TGI (OVCAR-8 ovarian) of over 100 µM and a GI50 (HL-60(TB) leukemia) of 2.78 µM. For the same molecule, the TGI (HL-60(TB) leukemia) was over 100 µM, the GI50 (DU-145 prostate) was 3.45 µM and the TGI (DU-145 prostate) was over 100 µM. The GI50 (SK-MEL-5 melanoma) was 0.836 µM, the TGI (SK-MEL-5 melanoma) was 37.7 µM and the GI50 (OVCAR-5 ovarian) was 5.32 µM. For the same molecule, the TGI (OVCAR-5 ovarian) was over 100 µM, the GI50 (U251 CNS) was 3.61 µM and the TGI (U251 CNS) was 26.9 µM. For the same molecule, the GI50 (SK-OV-3 ovarian) was 4.02 µM and the TGI (SK-OV-3 ovarian) was over 100 µM.
